Values after ≈ are worked out from the molar mass of the structure shown. Read-outs that look alike come from different tables or passages of the source.
Experiments:
[1] = mouse, hepatocytes
CYP = details: cited from earlier work
[2] = mouse, microsomes
[3] = mouse, microsomes; remark: listed apart in the source
[4] = mouse, microsomes; remark: listed apart in the source
[5] = microsomes
[6] = hepatocytes
[7] = mouse, hepatocytes; remark: listed apart in the source
M. tuberculosis H37Rv = assay: Acute M. tuberculosis infection efficacy model in 8HUM (lung CFU); assay type: in vivo, Mycobacterium tuberculosis
[8] = Oral pharmacokinetics in WT mice; details: female, mouse, whole blood
[9] = human, 100 mg BID; ref SI 8; cited from earlier work
[10] = Oral pharmacokinetics in 8HUM mice; details: female, mouse, whole blood
M. tuberculosis = details: cited from earlier work
[11] = DDI: pretomanid PK after CYP3A4 inducer pre-treatment in WT mice; assay type: in vivo, mouse
Experimental: (§1) With the exception of quinidine PK, female mice were used in all experiments. Dose levels and schedules were as detailed in SI Appendix. Serial blood samples (10 µL) were taken from the tail vein at the timepoints shown, diluted into 9 volumes of Milli-Q water, and stored at −20 °C prior to bioanalysis. Samples from mice infected with T. cruzi were snap-frozen in liquid nitrogen and thawed three times before storage at −20 °C until bioanalysis. Samples from mice infected with M. tuberculosis (15 µL) were mixed with two volumes of Milli-Q and stored at −70 °C until bioanalysis. All non-compartmental analysis, modeling, and simulation of PK was carried out using Phoenix WinNonlin version 8.3.1.5014 (Certara), as described in SI Appendix.
(§2) Mouse hepatic microsomes were prepared by homogenization of freshly-isolated liver in ice-cold SET buffer (0.25 M sucrose, 5 mM EDTA, and 20 mM Tris-HCL, pH 7.4) to make a 10% (w/v) homogenate solution (9 ml SET buffer/1 g liver) using a Polytron PT-MR-2100 homogenizer. Liver homogenates were centrifuged at 2000 rpm (Sorvall RTH-250 rotor) for 10 minutes at 4 °C and the supernatant then centrifuged at 12000 rpm (Sorvall SS-34 rotor) for 20 minutes at 4 °C. The resulting supernatant was centrifuged at 29130 rpm (Sorvall TFT-45.6 rotor) for 90 minutes at 4 °C and the microsomal pellets were resuspended in ice-cold SET buffer for storage at –70 °C.
(§3) Primary hepatocytes were freshly prepared from 8HUM using a modified version of Charni-Natan and Goldstein’s STAR Protocol(1). Following termination by cervical dislocation and femoral vessel cut […]
(§4) canula (Merck) and the liver perfused using 30 mL Hanks Buffered Saline Solution (HBSS, -Ca 2+ -Mg2+, no phenol red, Gibco), containing 0.5 mM EDTA and 25 mM HEPES, running at a flow rate of 3 mL/min at approximately 37 °C. Subsequently, 10 mL HBSS digestion buffer (Ca2+ & Mg2+, no phenol red, Gibco), including 25 mM HEPES and 270 µL liberase (Merck) running at a flow rate of 3 mL/min and ~37 °C was then perfused. The final perfusion step utilised 30 mL HBSS digestion buffer containing 25 mM HEPES and 20 mg collagenase (Merck) at approximately 37 °C. The liver was excised, gall bladder removed and placed in a 10 cm petri dish where it was covered with 10 mL plating medium WME containing CM4000. The liver capsule was gently agitated with a glass rod and forceps to disperse the liver cells. Cells were then poured through a 100 µm nylon strainer (Falcon, Corning, NY, USA) into a 50 mL collection tube and topped up to 50 mL with plating medium at 37 °C. All solutions were perfused using a Miniplus peristaltic pump (Gilson, Middleton, WI, USA) and run through a 20 mL Intrafix Safeset bubble trap (Braun, Melsungen, Germany) to prevent potential blocking of vessels during perfusion. […]

[12] = DDI: pretomanid PK after CYP3A4 inducer pre-treatment in 8HUM; assay type: in vivo, mouse (8HUM)
Experimental: as §1, §2, §3, §4

[13] = human, in vivo; cited from earlier work
[14] = WT pre-treated with efavirenz (40 mg/kg once daily for three days)
[15] = WT pre-treated with rifampicin (2 mg/kg once, 24 hr prior)
[16] = 8HUM pre-treated with efavirenz (40 mg/kg once daily for three days)
[17] = 8HUM pre-treated with rifampicin (2 mg/kg once, 24 hr prior)

For `CC(=O)NC[C@H]1CN(c2ccc(N3CCOCC3)c(F)c2)C(=O)O1` [Linezolid], the “CLint, 8HUM” value [1] is given as 0.5 mL/min/g liver, the “CYP interaction: Substrate” value (CYP) is given as 3A4 and the “CLint, 8HUM” value [2] is given as 0.5 mL/min/g liver. The “CLint, CypC4KO” value [3] was 0.5 mL/min/g liver and the “CLint, WT” value [4] was 0.5 mL/min/g liver.
In the case of `O=C(O)Cc1ccccc1Nc1c(Cl)cccc1Cl` [Diclofenac], the “CLint, 8HUM” value [1] was 1.8 mL/min/g liver.
With `OC(c1cc(C(F)(F)F)nc2c(C(F)(F)F)cccc12)C1CCCCN1` (stereo not drawn) [Mefloquine] the “CLint, Human” value [5] was 0.5 mL/min/g liver, the “CLint, 8HUM” value [1] was 0.5 mL/min/g liver and the “CLint, Human” value [6] was 0.5 mL/min/g liver. For the same molecule, the “CLint, CypC4KO” value [3] was 0.5 mL/min/g liver and the “CLint, WT” value [7] was 0.5 mL/min/g liver.
With `CC[C@H]1OC(=O)[C@H](C)[C@@H](O[C@H]2C[C@@](C)(OC)[C@@H](O)[C@H](C)O2)[C@H](C)[C@@H](O[C@@H]2O[C@H](C)C[C@H](N(C)C)[C@H]2O)[C@](C)(O)C[C@@H](C)C(=O)[C@H](C)[C@@H](O)[C@]1(C)O` [Erythromycin] the “CLint, Human” value [5] was 3.3 mL/min/g liver, the “CLint, 8HUM” value [1] was 0.5 mL/min/g liver and the “CLint, Human” value [6] was 0.5 mL/min/g liver. The “CLint, WT” value [7] was 1.3 mL/min/g liver.
In the case of `[H]/N=C(\N/C(=N/[H])Nc1ccc(Cl)cc1)NC(C)C` [Proguanil], the “CLint, Human” value [5] is given as 0.3 mL/min/g liver, the “CYP interaction: Substrate” value (CYP) is given as 2C19 and the “CLint, 8HUM” value [2] is given as 0.5 mL/min/g liver. The “CLint, WT” value [4] was 0.5 mL/min/g liver.
In the case of `COc1c(N2C[C@@H]3CCCN[C@@H]3C2)c(F)cc2c(=O)c(C(=O)O)cn(C3CC3)c12` [moxifloxacin], the “log CFU reduction in the lungs compared to the control group” value (M. tuberculosis H37Rv; 8HUM, day 9, 30 mg/kg QD) was 3.9 log CFU.
For `C=C[C@H]1C[N@@]2CC[C@H]1C[C@@H]2[C@@H](O)c1ccnc2ccc(OC)cc12` [Quinidine], the “CYP interaction: Inhibitor” value (CYP) is given as 2D6.
For `CC(C)CN(C[C@@H](O)[C@H](Cc1ccccc1)NC(=O)O[C@H]1CCOC1)S(=O)(=O)c1ccc(N)cc1` [Amprenavir], the “CYP interaction: Inhibitor” value (CYP) is listed as 3A4.
In the case of `CO[C@H]1C[C@H](O[C@H]2[C@H](C)[C@@H](O[C@@H]3O[C@H](C)C[C@H](N(C)C)[C@H]3O)[C@@H](C)C[C@@]3(CO3)C(=O)[C@H](C)[C@@H](O)[C@@H](C)[C@@H](C)OC(=O)[C@@H]2C)O[C@@H](C)[C@@H]1O` [Oleandomycin], the “CLint, Human” value [5] is listed as 18.5 mL/min/g liver, the “CYP interaction: Inhibitor” value (CYP) is listed as 3A4 and the “CLint, CypC4KO” value [3] is listed as 50 mL/min/g liver.
For `CO[C@H]1/C=C/O[C@@]2(C)Oc3c(C)c(O)c4c(O)c(c(/C=N/N5CCN(C)CC5)c(O)c4c3C2=O)NC(=O)/C(C)=C\C=C\[C@H](C)[C@H](O)[C@@H](C)[C@@H](O)[C@@H](C)[C@H](OC(C)=O)[C@@H]1C` [Rifampicin], the “CLint, Human” value [5] was 0.8 mL/min/g liver.
In the case of `CC[C@@H]([C@H](C)O)n1ncn(-c2ccc(N3CCN(c4ccc(OC[C@@H]5CO[C@@](Cn6cncn6)(c6ccc(F)cc6F)C5)cc4)CC3)cc2)c1=O` [Posaconazole], the “CLint, Human” value [5] was 0.5 mL/min/g liver, the “CLint, 8HUM” value [2] was 0.5 mL/min/g liver and the “CLint, WT” value [4] was 0.5 mL/min/g liver.
In the case of `CC[C@H]1OC(=O)[C@H](C)[C@@H](O[C@H]2C[C@@](C)(OC)[C@@H](O)[C@H](C)O2)[C@H](C)[C@@H](O[C@@H]2O[C@H](C)C[C@H](N(C)C)[C@H]2O)[C@](C)(OC)C[C@@H](C)C(=O)[C@H](C)[C@@H](O)[C@]1(C)O` [Clarithromycin], the “CLint, Human” value [5] is listed as 1.4 mL/min/g liver and the “CYP interaction: Substrate” value (CYP) is listed as 3A4.
With `CCOc1ccc2ccc(=O)oc2c1` [7-ethoxycoumarin] the “CLint, 8HUM” value [1] was 13.8 mL/min/g liver, the “CLint, Human” value [6] was 8.2 mL/min/g liver and the “CLint, WT” value [7] was 39 mL/min/g liver.
For `CC1(C)S[C@@H]2[C@H](NC(=O)[C@H](N)c3ccc(O)cc3)C(=O)N2[C@H]1C(=O)O` [Amoxicillin], the “CYP interaction: Inhibitor” value (CYP) is listed as 2C19.
For `CCOc1ccc(NC(C)=O)cc1` [Phenacetin], the “CLint, 8HUM” value [1] was 1.3 mL/min/g liver.
In the case of `CO[C@H]1O[C@@H]2O[C@@]3(C)CC[C@H]4[C@H](C)CC[C@@H]([C@H]1C)[C@@]24OO3` [Artemether], the “CYP interaction: Inhibitor” value (CYP) is listed as 3A4.
For `C[C@H](Cn1cnc2c(N)ncnc21)OCP(=O)(O)O` [Tenofovir], the “CYP interaction: Substrate” value (CYP) is given as 1A2.
With `CC(C)c1nc(CN(C)C(=O)N[C@H](C(=O)N[C@@H](Cc2ccccc2)C[C@H](O)[C@H](Cc2ccccc2)NC(=O)OCc2cncs2)C(C)C)cs1` [Ritonavir] the “CLint, Human” value [5] was 6.6 mL/min/g liver.
In the case of `CO[C@H]1/C=C/O[C@@]2(C)Oc3c(C)c(O)c4c(O)c(c(/C=N/N5CCN(C6CCCC6)CC5)c(O)c4c3C2=O)NC(=O)/C(C)=C\C=C\[C@H](C)[C@H](O)[C@@H](C)[C@@H](O)[C@@H](C)[C@H](OC(C)=O)[C@@H]1C` [Rifapentine], the “CYP interaction: Inducer” value (CYP) is listed as 2C8, 2C9.
In the case of `C[C@]1(COc2ccc(N3CCC(Oc4ccc(OC(F)(F)F)cc4)CC3)cc2)Cn2cc([N+](=O)[O-])nc2O1` [Delamanid], the “CLint, Human” value [5] is given as 0.8 mL/min/g liver, the CL/F [8] is given as 110 mL/min/kg and the “apparent volume of distribution (V/F)” value [9] is given as 11.9 L/kg. The “oral clearance (CL/F)” value [9] was 9.12 mL/min/kg and the CL/F [10] was 20.7 mL/min/kg.
For `O=[N+]([O-])c1cn2c(n1)OC[C@@H](OCc1ccc(OC(F)(F)F)cc1)C2` [Pretomanid], the “CLint, Human” value [5] is listed as 0.5 mL/min/g liver, the minimum inhibitory concentration (M. tuberculosis) is listed as 0.06 µg/mL (≈ 0.167 µM) and the CL/F [8] is listed as 4.43 mL/min/kg. For the same molecule, the “CYP interaction: Substrate” value (CYP) was 3A4, the “CLint, 8HUM” value [2] was 0.5 mL/min/g liver and the “decrease in AUC of pretomanid” value [11, 14] was 65%. For the same molecule, the “decrease in Cmax of pretomanid” value [11, 14] was 31%, the “decrease in AUC of pretomanid” value [11, 15] was 10% and the “decrease in Cmax of pretomanid” value [11, 15] was 6%. For the same molecule, the CL/F [10] was 2.17 mL/min/kg, the “efficacy in 8HUM compared with WT (lung CFU)” value (M. tuberculosis H37Rv; M. tuberculosis infection, once a day for 8 days) was “less effective in 8HUM” and the “CLint, WT” value [4] was 0.5 mL/min/g liver. The “decrease in AUC of pretomanid” value [12, 16] was 54%, the “decrease in Cmax of pretomanid” value [12, 16] was 14% and the “decrease in AUC of pretomanid” value [12, 17] was 51%. For the same molecule, the “decrease in Cmax of pretomanid” value [12, 17] was 25%, the “decrease in AUC of pretomanid” value [13] was 35% and the “decrease in Cmax of pretomanid” value [13] was 28%.
In the case of `CCCCN(CCCC)CCC(O)c1cc2c(Cl)cc(Cl)cc2c2cc(C(F)(F)F)ccc12` (stereo not drawn) [Halofantrine], the “CLint, Human” value [5] is given as 1.7 mL/min/g liver and the “CYP interaction: Substrate” value (CYP) is given as 3A4.
With `Cc1cc(C#N)cc(C)c1Oc1nc(Nc2ccc(C#N)cc2)nc(N)c1Br` [Etravirine] the “CLint, Human” value [5] was 1 mL/min/g liver.
